Assay results reported in patent US10703764B2, “Benzopiperazine compositions as BET bromodomain inhibitors” (FORMA Therapeutics, Inc., priority 2013, dated 2020).

Columns and labels:
BRD4 BD2 = target: T1, BRD4 BD2 (Homo sapiens, UniProt O60885); assay: AlphaScreen binding assay, BRD4 Bromodomain 2
T1 construct: made in house
Outline: (§1)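 An AlphaScreen competition format was used with His-BRD4 BD1 or BD2 and biotin-H4 K5/8/12/16-acetyl peptide, each at matched final levels of 50 nM (BD1) or 100 nM (BD2). Incubation in HEPES/NaCl buffer with 0.1% BSA and 0.01% Triton X-100 ran ≥1 h before IC50 determination.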

MV4-11 cells = assay: Oncology cell growth assay (3-day proliferation, CellTiter-Glo); format: cell-based; settings: Homo sapiens, MV4-11, 72 h, AML cell line MV4-11, 72 hours, compounds grouped by IC50 range, read-out: MV4-11 IC50 (inhibition of proliferation, gIC50)
Outline: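 72 h, 37° C, 5% CO2; MV4-11, 3000 cells/well, RPMI 1640 + 10% FBS. Compound final 10, 3.3, 1.1, 0.37, 0.12, 0.041, 0.013, 0.0045 μM. Readout CellTiter-Glo luminescence; gIC50 by 4-parameter logistic fit, normalised to DMSO and no-cell background.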

BRD4 BD1 = target: T2, BRD4 BD1 (Homo sapiens, UniProt O60885); assay: AlphaScreen binding assay, BRD4 Bromodomain 1
T2 construct: made in house
Outline: as §1

Row | SMILES | IC50 (BRD4 BD2) [nM] | IC50 (MV4-11 cells) [nM] | IC50 (BRD4 BD1) [nM]
1 | CC(=O)N1c2ccc(-c3cn(S(=O)(=O)N(C)C)cn3)cc2N(C(=O)c2ccco2)C[C@@H]1C [Example I-410] | < 50 | 100 to 500 | 100 to 1000
2 | CC(=O)N1c2ccc(-c3ccc(-c4ncco4)cc3)cc2N(C(=O)c2ccco2)C[C@@H]1C [Example I-412] | < 50 | 100 to 500 | 1000 to 10000
3 | CC(=O)N1c2ccc(-c3cnc(N)cn3)cc2N(C(=O)c2ccco2)C[C@@H]1C [Example I-413] | < 50 | 100 to 500 | 1000 to 10000
4 | COC(=O)Nc1ccc(-c2ccc3c(c2)N(C(=O)c2ccco2)C[C@H](C)N3C(C)=O)cc1 [Example I-414] | < 50 | 100 to 500 | 1000 to 10000
5 | CC(=O)N1c2ccc(-c3ccc(C4(O)COC4)cc3)cc2N(C(=O)c2ccco2)C[C@@H]1C [Example I-415] | < 50 | 100 to 500 | 100 to 1000
6 | CC(=O)N1c2ccc(-c3ccc(N4CCS(=O)(=O)CC4)cc3)cc2N(C(=O)c2ccco2)C[C@@H]1C [Example I-417] | < 50 | < 100 | 100 to 1000
7 | CC(=O)N1c2ccc(-c3cn(C)nn3)cc2N(C(=O)c2ccco2)C[C@@H]1C [Example I-420] | 50 to 500 | > 500 | 1000 to 10000
8 | CC(=O)N1c2ccc(-c3ccc(C(=O)N4CCNCC4)cc3)cc2N(C(=O)c2ccco2)C[C@@H]1C [Example I-422] | < 50 | 100 to 500 | 100 to 1000
9 | CC(=O)N1c2ccc(-c3ccc(S(=O)(=O)CCO)cc3)cc2N(C(=O)c2ccco2)C[C@@H]1C [Example I-423] | 50 to 500 | 100 to 500 | 1000 to 10000
10 | CC(=O)N1c2ccc(-c3ccc(S(=O)(=O)CCN)cc3)cc2N(C(=O)c2ccco2)C[C@@H]1C [Example I-425] | < 50 | 100 to 500 | 100 to 1000
11 | CC(=O)N1c2ccc(-c3ccc(C(=O)NCCN)cc3)cc2N(C(=O)c2ccco2)C[C@@H]1C [Example I-426] | < 50 | 100 to 500 | 1000 to 10000
12 | CC(=O)N1c2ccc(-c3ccc(CN4CCCS4(=O)=O)cc3)cc2N(C(=O)c2ccco2)C[C@@H]1C [Example I-427] | < 50 | 100 to 500 | 100 to 1000
13 | CC(=O)N1c2ccc(-c3ccc(OCCC#N)cc3)cc2N(C(=O)c2ccco2)C[C@@H]1C [Example I-428] | 50 to 500 | 100 to 500 | 100 to 1000
14 | CC(=O)N1c2ccc(-c3ccc(-c4ncc[nH]4)cc3)cc2N(C(=O)c2ccco2)CC1C (stereo not drawn) [Example I-429] | < 50 | 100 to 500 | 100 to 1000
15 | CC(=O)N1c2ccc(-c3nnc(N)s3)cc2N(C(=O)c2ccco2)C[C@@H]1C [Example I-430] | 50 to 500 | 100 to 500 | 1000 to 10000
16 | CC(=O)N1c2ccc(-c3ccc(N4CCS(=O)(=O)CC4)cc3)cc2N(C(=O)C2CC2)C[C@@H]1C [Example I-435] | < 50 | 100 to 500 | 100 to 1000
17 | C[C@H]1CN(C(=O)C2CC2)c2cc(-c3ccc(N4CCS(=O)(=O)CC4)cc3)ccc2N1C(=O)C1CC1 [Example I-436] | 50 to 500 | 100 to 500 | 100 to 1000
18 | CC(=O)N1c2ccc(-c3ccc(C(=O)N4CCNCC4)cc3)cc2N(C(=O)C2CC2)C[C@@H]1C [Example I-437] | 50 to 500 | 100 to 500 | 100 to 1000
19 | C[C@H]1CN(C(=O)C2CC2)c2cc(-c3ccc(C(=O)N4CCNCC4)cc3)ccc2N1C(=O)C1CC1 [Example I-438] | 50 to 500 | 100 to 500 | 100 to 1000
20 | CC(=O)N1c2ccc(-c3ccc(N4CCCS4(=O)=O)cc3)cc2N(C(=O)C2CC2)C[C@@H]1C [Example I-439] | 50 to 500 | 100 to 500 | 100 to 1000
21 | CC(=O)N1c2ccc(-c3ccc(C4(O)COC4)cc3)cc2N(C(=O)C2CC2)C[C@@H]1C [Example I-443] | < 50 | 100 to 500 | 100 to 1000
22 | CC(=O)N1c2ccc(-c3ccc(CS(N)(=O)=O)cc3)cc2N(C(=O)C2CC2)C[C@@H]1C [Example I-445] | 50 to 500 | 100 to 500 | 100 to 1000
23 | CC(=O)N1c2ccc(-c3ccc(S(=O)(=O)CCN)cc3)cc2N(C(=O)C2CC2)C[C@@H]1C [Example I-447] | 50 to 500 | > 500 | 1000 to 10000
24 | CC(=O)N1c2ccc(-c3ccc(S(=O)(=O)CCO)cc3)cc2N(C(=O)C2CC2)C[C@@H]1C [Example I-449] | 50 to 500 | > 500 | 100 to 1000
